Measurements from patent US5684036A, “Cytotoxic macrolides and methods of use” (Harbor Branch Oceanographic Institution, Inc., priority 1995, dated 1997).
≈ marks a conversion by molar mass, not a printed value. Read-outs that look alike come from different tables or passages of the source.

Legend:
Type in all cases: cell-based
[1] = system: P388 murine leukemia cells; experiment: antiproliferative effect against P388 murine leukemia cells (MTT, 48 hour exposure); conditions: for IC50: Mus musculus, P388
Method: (§1) Lasonolide A was tested for toxicity against P388 murine leukemia cells and A549 human lung carcinoma cells, and for their ability to perturb signal transduction pathways associated with activation of protein kinase C (PKC) and EL-4 cell adherence.
(§2) A. Maintenance of cell line. The P388 murine leukemia cells were obtained from Dr. J. Mayo, National Cancer Institute, Bethesda, Md. The A549 cells and EL-4.IL-2 cells (TIB) were obtained from the American Type Culture Collection, Rockville, Md. The P388 cells were maintained in Roswell Park Memorial Institute medium 1640 (RPMI-1640) supplemented with 10% horse serum and cultured in plastic tissue culture flasks and kept in an incubator at 37° C. in humidified air containing 5% CO2. The A549 cells were similarly maintained in RPMI-1640 but supplemented with 10% fetal bovine serum. Antibiotic-free stock cultures of P388 and A549 cells were subcultured to 10^5 cells/mi by dilutions in fresh growth medium at 2 to 5 day intervals. The EL-4 cells were similarly maintained but supplemented with 10% v/v heat-inactivated fetal calf serum, 100 U/ml penicillin, 100 μg/ml streptomycin, 6/ μg/ml L-glutamine, and 5×10^-3 M 2-mercaptoethanol (TCM) (Grand Island Biologicals Co., Grand Island, N.Y.).
B. Procedure. […]
(§3) To quantitate the effects of Lasonolide A or its analogs on cell proliferation, 75 μl warm growth medium containing 5 mg/ml MTT was added to each well. […] To spectrophotometrically quantitate formation of reduced formazan, plates were centrifuged (900 g, 5 minutes), culture fluids were removed by aspiration, and 200 μl of acidified isopropanol (2 ml concentrated HCl/L isopropanol) added per well. The absorbance of the resulting solutions was measured at 570 nm with a plate reader (MR700 Microplate Reader, Dynatech Laboratories, Chantilly, Va.). […]

[2] = system: A549 human lung carcinoma cells; experiment: antiproliferative effect against A549 human lung carcinoma cells (MTT, 72 hours)
Method: as §1
A. Maintenance of cell line. The P388 murine leukemia cells were obtained from Dr. J. Mayo, National Cancer Institute, Bethesda, Md. The A549 cells and EL-4.IL-2 cells (TIB) were obtained from the American Type Culture Collection, Rockville, Md. The P388 cells were maintained in Roswell Park Memorial Institute medium 1640 (RPMI-1640) supplemented with 10% horse serum and cultured in plastic tissue culture flasks and kept in an incubator at 37° C. in humidified air containing 5% CO2. The A549 cells were similarly maintained in RPMI-1640 but supplemented with 10% fetal bovine serum. […]
as §3

[3] = system: EL-4 cell adherence (protein kinase C); experiment: EL-4 adherence assay (PKC-associated, with or without PMA); parameters: key to EL-4 Adherence: Inh: inhibition; conditions: for IC50: Mus musculus, EL4
Method: as §1, §2
Cells were passaged every 3-4 days. Viability was determined by Trypan blue exclusion and always exceeded 80%. For the adherence assay, cells were utilized within 15 passages of frozen stock cultures. Phorbol-12-myristate-13-acetate (PMA), and 4α-phorbol-12-myristate-13-acetate (4α-PMA) were obtained from LC Services Corporation (Woburn, Mass.). Stock solutions of PMA and 4α-PMA were prepared in DMSO and were stored at -70° C. prior to use.
To assess the effect of the subject compound on EL-4 cells, EL-4 cells (2.5×10^5 /well) were cultured in 96-well, flat-bottomed microtiter test plates at 37° C. with the sponge metabolites in triplicate concentrations in the presence (Plate #1) or absence (Plate #2) of PMA (16 nM final concentration). […] Controls consisted of cells incubated alone (negative control) and cells incubated with PMA (positive control). An additional control plate (Plate #3), consisting of EL-4.1IL-2 cells and identical dilutions of compounds in the absence of PMA served as a cytotoxicity plate and was not processed for adherence as described below, but used to monitor the potential cytotoxic effect of compounds for EL-4.1IL2 cells. Incubation time was 1 hour at 37° C. Following the incubation period, Plates #1 and #2 were processed as follows: the contents of each well were removed by flicking the plates into a catch tray and placing the plates inverted onto a paper towel in order to drain and blot the remaining draining wells. To each well, a volume of 100 μl of TCM was added at room temperature and the plates placed on a rotating platform shaker (Mini-Orbital Shaker, BELLCO Biotechnology, Vineland, N.J.) at setting 5 for 4 minutes. The plates were then rotated 180° and subjected to an additional 4 minutes of shaking. The plates were removed and their contents again removed as described, blotted, TCM added to each well, and the plates placed on the rotating shaker. This process was repeated for two additional wash cycles.
Following the removal of well contents, a volume of 200 μl of TCM and 75 of MTT solution (2 mg/ml in TCM) was added to each well of all plates. Plates were incubated at 37° C. for an additional 4 hours. Following incubation, the contents of Plates #1 and #2 were again removed by flicking the plate into the sink and the plates blotted onto paper towels. Plate #3 was centrifuged and likewise blotted. A volume of 200 μl of iPrOH was then added to each well of all plates in order to dissolve the resulting formazan crystals. The plates were read at 570 nm using a plate reader (Microplate Autoreader, Model EL-311, BIO-TEK Instruments, Inc., Winooski, Vt.). The absorbances for each set of triplicate wells were averaged and the standard error determined. […]

tumor cell = experiment: inhibition of tumor cell growth (general statement); conditions: in words

## C=C(CCC(C)C)COC(=O)C(O)C/C=C/CC1OC2/C=C\C/C=C/C(C)=C\C3OC(C/C=C/C=C/C(=O)OC(C2)C1(C)CO)CC(O)C3C (stereo not shown) [Lasonolide A]
[1]; Table 4, MTT, 48 hours, read-out: P388 IC50
  IC50: 0.002 µg/mL (≈ 0.00287 µM)
[1]; read-out: IC50 against mouse leukemia cells
  IC50: < 0.01 µg/mL
[1]; in words
  inhibitory properties against mouse leukemia cells: strong inhibitory properties
[2]; Table 4, MTT, 72 hours, read-out: A549 IC50
  IC50: 0.04 µg/mL (≈ 0.0574 µM)
[2]; read-out: IC50 against cultured human lung carcinoma cells (A549)
  IC50: 0.04 µg/mL (≈ 0.0574 µM)
[3]; Table 4, Assay # 38, read-out: EL-4 Adherence IC50
  IC50: 0.019 µg/mL (≈ 0.0273 µM)
[3]; unit inferred, read-out: IC50 by EL-4 Adherence
  IC50: 0.019 µg/mL (≈ 0.0273 µM)
[3]; Table 4, 3.125 μg/ml
  EL-4 Adherence: Inh
[3]; Table 4, 6.25 μg/ml
  EL-4 Adherence: Inh
[3]; Table 4, 12.5 μg/ml
  EL-4 Adherence: Inh
[3]; Table 4, 25 μg/ml
  EL-4 Adherence: Inh
[3]; in words
  Inhibition using the EL-4 Adherence assay: strong
Tumor cell
  inhibition of tumor cell growth: inhibit tumor cell growth
